Data on 19 molecules can be found in patent US5534533A, “Carboxylate derivatives exhibiting phospholipase A2 inhibitory activity” (Shionogi & Co., Ltd., priority 1993, dated 1996).

pIC50: −log10 of the molar value.

In one experiment the target is T1, Human secretory PLA2 (Homo sapiens, UniProt P14555).
T1 sequence (P14555 21-144): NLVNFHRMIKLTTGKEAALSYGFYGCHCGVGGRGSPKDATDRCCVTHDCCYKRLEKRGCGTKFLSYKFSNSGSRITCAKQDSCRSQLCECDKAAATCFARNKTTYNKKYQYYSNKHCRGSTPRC
Put plainly: Secretory PLA2 inhibitory activity (diheptanoyl thio PC substrate, absorbance at 405 nm). Type of experiment: biochemical. The note with it: diheptanoyl thio PC 1 mM, Triton X100 0.3 mM, pH 7.3, CaCl2 10 mM, 30 minutes, read-out: s-PLA2 Inhibition IC50. As for the experimental part:
Secretory PLA2 activity was assayed according to the method described in Penynolds L. J., Hughes L. L., Dennis E. A. et al. Anal. Biochem. 201,190-197 (1992).
Diheptanoyl thiophosphatidylcholine which was prepared according to the procedure described in the literature was used as a substrate. Human secretory PLA2 was used as an enzyme. The diheptanoyl thio PC (1 mM) was reacted with the human secretory PLA2 in the presence of Triton X100 (0.3 mM) and 5,5'-dithiobis-(2-nitrobenzoic acid) (125 μM) in Tris buffer (25 mM, pH 7.3), CaCl2 (10 mM), KCI (100 mM), bovine serum albumin (1.0 mg/ml), and then the change in absorbance at 405 nm at the time of 30 minutes after the reaction was assayed.
Inhibitory activity (%) was estimated by the formula: [(the change in absorbance with the inhibitor and PLA2 ·the change in absorbance with the inhibitor and without PLA2)/(the change in absorbance without the inhibitor and with PLA2 ·the change in absorbance without the inhibitor and PLA2)]×100.
IC50 value (μM) was calculated from graph showing inhibitory values on the vertical axis and log of concentrations of the inhibitor on the horizontal axis.

Experiment [1] deals with T2, intracellular PLA2 (cytosolic PLA2, cPLA2) (Homo sapiens, UniProt P47712).
T2 sequence (P47712 1-749): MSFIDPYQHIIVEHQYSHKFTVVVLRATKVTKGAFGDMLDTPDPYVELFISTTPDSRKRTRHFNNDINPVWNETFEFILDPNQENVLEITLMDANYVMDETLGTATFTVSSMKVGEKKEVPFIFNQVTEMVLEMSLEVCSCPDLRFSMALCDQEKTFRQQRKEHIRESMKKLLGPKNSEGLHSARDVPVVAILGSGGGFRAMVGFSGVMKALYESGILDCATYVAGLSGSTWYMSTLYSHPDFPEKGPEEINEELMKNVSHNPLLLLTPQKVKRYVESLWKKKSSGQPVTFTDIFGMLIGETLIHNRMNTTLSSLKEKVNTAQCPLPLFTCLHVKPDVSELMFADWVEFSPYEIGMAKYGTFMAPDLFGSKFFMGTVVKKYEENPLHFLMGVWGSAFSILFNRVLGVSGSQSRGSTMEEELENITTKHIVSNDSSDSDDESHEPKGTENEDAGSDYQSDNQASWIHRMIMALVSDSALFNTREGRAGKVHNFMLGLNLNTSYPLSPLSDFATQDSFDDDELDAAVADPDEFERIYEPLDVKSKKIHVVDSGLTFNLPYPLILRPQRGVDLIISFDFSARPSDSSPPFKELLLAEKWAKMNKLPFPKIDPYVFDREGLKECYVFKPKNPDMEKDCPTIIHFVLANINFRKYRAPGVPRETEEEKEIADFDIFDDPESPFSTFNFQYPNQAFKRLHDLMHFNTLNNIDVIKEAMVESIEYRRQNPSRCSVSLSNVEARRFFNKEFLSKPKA
Put plainly: Intracellular PLA2 (cPLA2) inhibitory activity (14C-arachidonyl phosphatidylcholine substrate). Type of experiment: biochemical. The note with it: 2 μM radiolabelled phosphatidylcholine, 1 μM dioleoylglycerol, 1 mM CaCl2, pH 7.4; read-out: c-PLA2 Inhibition IC50. As for the experimental part: cPLA2 activity was assayed according to the method described in R. M. Kramer, E. F. Roberts, J. Manetta and J. E. Putnam, J. Biol. Chem., 268 (8), 5268-5272 (1991). Briefly, intracellular PLA2 activity was assayed using supersonic treated […] which contain 1-palmitoyl-2-[^14 C]arachidonyl-sn-glycero-3-phosphocholine and sn-1, 2-dioleoylglycerol at a molar ratio of 2:1. This test mixture contained 1 mM CaCl2, 2 mM dithiothreitol, 150 mM NaCl, 50 mM Hepes, pH 7.4 and 0.1 mg/ml BSA. A substrate is a 2 μM radioisotope labelled phosphatidylcholine ribosome containing 1 μM dioleoylglycerol. IC50 value is calculating in the same manner as in calculating it for secretory PLA2 inhibitory activity.

For the molecule `COc1c(C)c(OC(=O)c2c(C)c(C)c(OCCC3=CCC4CC3C4(C)C)c(C)c2OC)c(C)c(C)c1C(=O)O` (single isomer, unassigned) [Example 49, 4-{4-[2-(6,6-Dimetheylbicyclo[3.1.1]hept-2-en-2-yl)ethoxy]-2-methoxy-3,5,6-trimethylbenzoyloxy}-2-methoxy-3,5,6-trimethylbenzoic Acid], the pIC50 on Human secretory PLA2 was 4.36; in experiment [1], 5.39.

Turning to `COc1c(C)c(OC(=O)c2c(C)c(C)c(OCCCCCCOc3ccc(C(F)(F)F)cc3)c(C)c2OC)c(C)c(C)c1C(=O)O` [Example 3, 4-[4-[6-(4-Trifluoromethylphenoxy)hexyloxy]-2-methoxy-3,5,6-trimethylphenylcarboxy]-2-methoxy-3,5,6-trimethylbenzoic acid], the pIC50 was 4.49 at Human secretory PLA2 and 5.52 in experiment [1].

For the molecule `COc1c(C)c(OC(=O)c2c(C)c(C)c(OCCCCCCOc3ccc(F)cc3)c(C)c2OC)c(C)c(C)c1C(=O)O` [Example 4, 4-[4-[6-(4-Fluorophenoxy)hexyloxy]-2-methoxy-3,5,6-trimethylphenylcarboxy]-2-methoxy-3,5,6-trimethylbenzoic acid], the pIC50 on Human secretory PLA2 was 4.57; in experiment [1] it was 5.13.

In the case of `COc1c(C)c(OC(=O)c2c(C)c(C)c(OCCCCCCSc3ccc(F)cc3)c(C)c2OC)c(C)c(C)c1C(=O)O` [Example 5, 4-[4-[6-(4-Fluorophenylthio)hexyloxy]-2-methoxy-3,5,6-trimethylphenylcarboxy]-2-methoxy-3,5,6-trimethylbenzoic acid], the pIC50 at Human secretory PLA2 is 4.33; in experiment [1] it was 5.40.

As to `COc1c(C)c(OC(=O)c2c(C)c(C)c(OCCCCCCS(=O)(=O)c3ccc(F)cc3)c(C)c2OC)c(C)c(C)c1C(=O)O` [Example 6, 4-[4-[6-(4-Fluorophenylsulfonyl)hexyloxy]-2-methoxy-3,5,6-trimethylphenylcarboxy]-2-methoxy-3,5,6-trimethylbenzoic acid], the results for the pIC50 (at Human secretory PLA2; in experiment [1]) were 5.05 and 4.92, respectively.

As to `COc1c(C(C)(C)C)cc(SCCCOc2c(C)c(C)c(C(=O)Oc3c(C)c(C)c(C(=O)O)c(OC)c3C)c(OC)c2C)cc1C(C)(C)C` [Example 7, 4-[4-[3-(3,5-Di-tert-butyl-4-methoxyphenylthio)propyloxy]-2-methoxy-3,5,6-trimethylphenylcarboxy]-2-methoxy-3,5,6-trimethylbenzoic acid], the pIC50 at Human secretory PLA2 is below 4.30; in experiment [1] it was 6.27.

Consider `COc1c(C)c(OC(=O)c2c(C)c(C)c(OCc3ccc(F)cc3)c(C)c2OC)c(C)c(C)c1C(=O)O` [Example 8, 4-[4-(4-Fluorobenzyloxy)-2-methoxy-3,5,6-trimethylphenylcarboxy]-2-methoxy-3,5,6-trimethylbenzoic acid], for which the pIC50 on Human secretory PLA2 is 4.66; in experiment [1], 4.51.

Take `COc1c(C)c(OC(=O)c2c(C)c(C)c(OCc3ccccc3)c(C)c2OC)c(C)c(C)c1C(=O)O` [Example 9, 4-[4-Benzyloxy-2-methoxy-3,5,6-trimethylphenylcarboxy)2-methoxy-3,5,6-trimethylbenzoic acid]: the pIC50 at Human secretory PLA2 is 4.35; in experiment [1], 4.48.

With `COc1c(C)c(OC(=O)c2c(C)c(C)c(OCCCSc3ccc(F)cc3)c(C)c2OC)c(C)c(C)c1C(=O)O` [Example 10, 4-[4-[3-(4-Fluorophenylthio)propyloxy]-2-methoxy-3,5,6-trimethylphenylcarboxy]-2-methoxy-3,5,6-trimethylbenzoic acid], the pIC50 (at Human secretory PLA2; in experiment [1]) was 4.89 throughout.

Regarding `COc1c(C)c(OC(=O)c2c(C)c(C)c(OCCCCCCOc3ccc(Cl)cc3)c(C)c2OC)c(C)c(C)c1C(=O)O` [Example 11, 4-[4-[6-(4-Chlorophenoxy)hexyloxy]-2-methoxy-3,5,6-trimethylphenylcarboxy]-2-methoxy-3,5,6-trimethylbenzoic acid], the pIC50 at Human secretory PLA2 is 4.85; in experiment [1], 5.32.

As to `COc1c(C(C)(C)C)cc(SCCCCCCOc2c(C)c(C)c(C(=O)Oc3c(C)c(C)c(C(=O)O)c(OC)c3C)c(OC)c2C)cc1C(C)(C)C` [Example 12, 4-[4-[6-(3,5-Di-tert-butyl-4-methoxyphenylthio)hexyloxy]-2-methoxy-3,5,6-trimethylphenylcarboxy]-2-methoxy-3,5,6-trimethylbenzoic acid], the figures for the pIC50 (on Human secretory PLA2; in experiment [1]) were below 4.30 and 5.70, respectively.

For the molecule `COc1c(C(C)(C)C)cc(SCCCCCCOc2c(C)c(C)c(C(=O)O)c(OC)c2C)cc1C(C)(C)C` [Example 13, 4-[6-(3,5-Di-tert-butyl-4-methoxyphenylthio)hexyloxy]-2-methoxy-3,5,6-trimethylbenzoic acid], the pIC50 on Human secretory PLA2 was below 4.30; in experiment [1], 5.72.

For the molecule `COc1c(C)c(OC(=O)c2c(C)c(C)c(OCCCOc3ccc(F)cc3F)c(C)c2OC)c(C)c(C)c1C(=O)O` [Example 14, 4-[4-[3-(2,4-difluorophenoxy)propyloxy]-2-methoxy-3,5,6-trimethylphenylcarboxy]-2-methoxy-3,5,6-trimethylbenzoic acid], the pIC50 on Human secretory PLA2 was 4.85; in experiment [1], 5.03.

As for `COc1c(C(C)(C)C)cc(SCCCOc2c(C)c(C)c(C(=O)O)c(OC)c2C)cc1C(C)(C)C` [Example 16, 4-[3-(3,5-Di-tert-butyl-4-methoxyphenylthio)propyloxy]-2-methoxy-3,5,6-trimethylbenzoic acid], the pIC50 on Human secretory PLA2 was below 4.30; in experiment [1], 5.59.

On to `COc1ccc(OCCCOc2c(C)c(C)c(C(=O)Oc3c(C)c(C)c(C(=O)O)c(OC)c3C)c(OC)c2C)cc1` [Example 17, 4-[4-[3-(4-Methoxyphenoxy)propyloxy]-2-methoxy-3,5,6-trimethylphenylcarboxy]-2-methoxy-3,5,6-trimethylbenzoic acid], for which the pIC50 at Human secretory PLA2 is 4.92; in experiment [1], 4.85.

Regarding `COc1c(C)c(OCCCOc2ccc3ccccc3c2)c(C)c(C)c1C(=O)O` [Example 18, 2-Methoxy-3,5,6-trimethyl-4-[3-(2-naphthyloxy)-propyloxy]benzoic acid], the pIC50 is below 4.30 at Human secretory PLA2 and 4.72 in experiment [1].

On to `COc1c(C)c(OC(=O)c2c(C)c(C)c(OCCCOc3ccc4ccccc4c3)c(C)c2OC)c(C)c(C)c1C(=O)O` [Example 19, 4-[2-Methoxy-3,5,6-trimethyl-4-[3-(2-naphthyloxy)-propyloxy]phenylcarboxy]-2-methoxy-3,5,6-trimethylbenzoic acid], for which the pIC50 on Human secretory PLA2 is 4.80; in experiment [1], 5.74.

Consider `COc1ccc(OCCCOc2c(C)c(C)c(C(=O)Oc3c(C)c(C)c(C(=O)O)c(OC)c3C)c(OC)c2C)cc1OC` [Example 20, 4-[4-[3-(3,4-Dimethoxyphenoxy)propyloxy]-2-methoxy-3,5,6-trimethylphenylcarboxy]-2-methoxy-3,5,6-trimethylbenzoic acid], for which the pIC50 on Human secretory PLA2 is 4.96; in experiment [1] it was 4.46.

For `COc1cc(OCCCOc2c(C)c(C)c(C(=O)Oc3c(C)c(C)c(C(=O)O)c(OC)c3C)c(OC)c2C)c(C(c2ccccc2)c2ccccc2)cc1OC` [Example 21, 4-[4-[3-(2-Benzhydryl-4,5-dimethoxyphenoxy)propyloxy]-2-methoxy-3,5,6-trimethylphenylcarboxy]-2-methoxy-3,5,6-trimethylbenzoic acid], the pIC50 is 4.82 at Human secretory PLA2 and 5.85 in experiment [1].

In general, pIC50 refers to −log10 of the IC50, conventionally taken in molar units.
